Measured values published in patent US5698411A, “Method for determining activity of enzymes in metabolically active whole cells” (priority 1995, dated 1997).

Assays:
Format in all cases: cell-based, human
[1] = test system: metabolically active whole cell; test: substrate panel in normals and HIV + patients, TB infection (Table 4); set-up: unit not given here
Protocol: A panel of assay compounds are assembled consisting of Ala-aminopeptidase and Lys-aminopeptidase, Dipeptidyl peptidase IV (Ala-Ala)2 rhodamine 110 and Cathepsin D to indicate possible TB infection in AIDS related cases.
A panel Of enzymatic substrates is performed consisting of Ala-aminopeptidase and Lys-aminopeptidase, Dipeptidyl peptidase IV (Ala-Ala)2 rhodamine 110 and Cathepsin D to indicate possible TB infection in AIDS related cases.

lymphocytes [2] = test: peptidase activity in leukemia and non-leukemia patients, lymphocytes (Table 6C); set-up: unit not given here
Description: (§1) Artificial intelligence was used to analyze data of cellular enzyme functions, and determine normal and disease states. Peptidases were used to distinguish leukemia from non-leukemia (output pattern). For input patterns lymphocyte and granulocyte cell types were used with aminopeptidases, cathepsins and dipeptidylpeptidase enzyme activities. In this Example, illustrated in Tables 6A-6C, three normals and three leukemia patients were used as known output patterns for the neural network to learn (in practice, the larger the learning set the more accurate unknown prediction will be). Unknowns were then presented to the learned algorithm as shown in the test case examples. Clinical diagnosis was confirmed by physicians. The trained neural network was able to correctly classify the leukemia from the non-leukemia.

granulocytes [3] = test: peptidase activity in leukemia and non-leukemia patients, granulocytes (Table 6C); set-up: unit not given here
Description: as §1

lymphocytes [4] = test: aberrant enzyme activities in febrile children, lymphocytes (Table 7)
monocytes = test: aberrant enzyme activities in febrile children, monocytes (Table 7)
granulocytes [5] = test: aberrant enzyme activities in febrile children, granulocytes (Table 7)

SMILES: C[C@H](N)C(=O)Nc1ccc2c(c1)Oc1cc(NC(=O)[C@H](C)N)ccc1C21OC(=O)c2ccccc21 [ALA, (Ala)2 Rho 110]
- MEAN DELTA FL ([1]; HIV + PATIENTS): 59.0
- MEAN DELTA FL ([1]; NORMALS): 132.0
- enzyme activity, Lymphs (lymphocytes [2]; J4 11/21/91 acute leuk.): 86.00
- enzyme activity, Lymphs (lymphocytes [2]; J4 12/2/91 A L): 68.10
- enzyme activity, Lymphs (lymphocytes [2]; J4 12/3/91 acute leuk.): 74.64
- enzyme activity, Lymphs (lymphocytes [2]; J5 11/27/91 A M L): 92.44
- enzyme activity, Lymphs (lymphocytes [2]; J19 11/27/91 C L L): 47.78
- enzyme activity, Lymphs (lymphocytes [2]; J22 12/2/91 A M L): 84.42
- enzyme activity, Lymphs (lymphocytes [2]; J22 12/9/91 A M L): 83.48
- enzyme activity, Lymphs (lymphocytes [2]; N191 normal): 95.72
- enzyme activity, Lymphs (lymphocytes [2]; N192 normal): 103.31
- enzyme activity, Lymphs (lymphocytes [2]; N193 normal): 100.50
- enzyme activity, Lymphs (lymphocytes [2]; N194 normal): 97.02
- enzyme activity, Lymphs (lymphocytes [2]; N195 normal): 118.81
- enzyme activity, Lymphs (lymphocytes [2]; N197 normal): 96.36
- enzyme activity, Lymphs (lymphocytes [2]; N199 normal): 91.07
- enzyme activity, Lymphs (lymphocytes [2]; N200 normal): 101.38
- enzyme activity, Lymphs (lymphocytes [2]; N201 normal): 106.72
- enzyme activity, Lymphs (lymphocytes [2]; N202 normal): 118.37
- enzyme activity, Lymphs (lymphocytes [2]; N206 normal): 122.71
- enzyme activity, Lymphs (lymphocytes [2]; P68 tachycardia): 1471.10
- enzyme activity, Lymphs (lymphocytes [2]; P69 pancreatic CA): 130.34
- enzyme activity, Lymphs (lymphocytes [2]; P70 cirrhosis/hemobilia): 141.87
- enzyme activity, Lymphs (lymphocytes [2]; P71 ac. pyelonephritis): 109.26
- enzyme activity, Grans (granulocytes [3]; J4 11/21/91 acute leuk.): 193.43
- enzyme activity, Grans (granulocytes [3]; J4 12/2/91 A L): 139.53
- enzyme activity, Grans (granulocytes [3]; J4 12/3/91 acute leuk.): 138.89
- enzyme activity, Grans (granulocytes [3]; J5 11/27/91 A M L): 194.85
- enzyme activity, Grans (granulocytes [3]; J19 11/27/91 C L L): 143.11
- enzyme activity, Grans (granulocytes [3]; J22 12/2/91 A M L): 157.12
- enzyme activity, Grans (granulocytes [3]; J22 12/9/91 A M L): 157.48
- enzyme activity, Grans (granulocytes [3]; N191 normal): 177.32
- enzyme activity, Grans (granulocytes [3]; N192 normal): 154.84
- enzyme activity, Grans (granulocytes [3]; N193 normal): 178.64
- enzyme activity, Grans (granulocytes [3]; N194 normal): 164.00
- enzyme activity, Grans (granulocytes [3]; N195 normal): 221.28
- enzyme activity, Grans (granulocytes [3]; N197 normal): 188.20
- enzyme activity, Grans (granulocytes [3]; N199 normal): 157.30
- enzyme activity, Grans (granulocytes [3]; N200 normal): 171.06
- enzyme activity, Grans (granulocytes [3]; N201 normal): 206.06
- enzyme activity, Grans (granulocytes [3]; N202 normal): 201.17
- enzyme activity, Grans (granulocytes [3]; N206 normal): 232.57
- enzyme activity, Grans (granulocytes [3]; P68 tachycardia): 276.07
- enzyme activity, Grans (granulocytes [3]; P69 pancreatic CA): 204.02
- enzyme activity, Grans (granulocytes [3]; P70 cirrhosis/hemobilia): 236.23
- enzyme activity, Grans (granulocytes [3]; P71 ac. pyelonephritis): 185.37
- aberrant enzyme activity, LYMPHS (lymphocytes [4]; P88 Enteritis): .smallcircle.
- aberrant enzyme activity, LYMPHS (lymphocytes [4]; P89 Viral Stomatitis): .smallcircle.
- aberrant enzyme activity, LYMPHS (lymphocytes [4]; P92 Adenitis): .smallcircle.
- aberrant enzyme activity, LYMPHS (lymphocytes [4]; P97 Pyelonephritis): .smallcircle.
- aberrant enzyme activity, LYMPHS (lymphocytes [4]; P102 UTI): .smallcircle.
- aberrant enzyme activity, LYMPHS (lymphocytes [4]; P103 Viral Syndrome): .smallcircle.
- aberrant enzyme activity, MONOS (monocytes; P88 Enteritis): .smallcircle.
- aberrant enzyme activity, MONOS (monocytes; P89 Viral Stomatitis): .smallcircle.
- aberrant enzyme activity, MONOS (monocytes; P92 Adenitis): + (>0.25 Increase over normal range)
- aberrant enzyme activity, MONOS (monocytes; P97 Pyelonephritis): + (>0.25 Increase over normal range)
- aberrant enzyme activity, MONOS (monocytes; P102 UTI): + (>0.25 Increase over normal range)
- aberrant enzyme activity, MONOS (monocytes; P103 Viral Syndrome): .smallcircle.
- aberrant enzyme activity, GRANS (granulocytes [5]; P88 Enteritis): .smallcircle.
- aberrant enzyme activity, GRANS (granulocytes [5]; P89 Viral Stomatitis): .smallcircle.
- aberrant enzyme activity, GRANS (granulocytes [5]; P92 Adenitis): + (>0.25 Increase over normal range)
- aberrant enzyme activity, GRANS (granulocytes [5]; P97 Pyelonephritis): + (>0.25 Increase over normal range)
- aberrant enzyme activity, GRANS (granulocytes [5]; P102 UTI): .smallcircle.
- aberrant enzyme activity, GRANS (granulocytes [5]; P103 Viral Syndrome): .smallcircle.

SMILES: NCCCC[C@H](N)C(=O)Nc1ccc2c(c1)Oc1cc(NC(=O)[C@@H](N)CCCCN)ccc1C21OC(=O)c2ccccc21 [LYS, (H-L-Lys)2 Rho 110 .4TFA]
- MEAN DELTA FL ([1]; HIV + PATIENTS): 7.4
- MEAN DELTA FL ([1]; NORMALS): 10.5
- enzyme activity, Lymphs (lymphocytes [2]; J4 11/21/91 acute leuk.): 0.77
- enzyme activity, Lymphs (lymphocytes [2]; J19 11/27/91 C L L): 0.98
- enzyme activity, Lymphs (lymphocytes [2]; J22 12/2/91 A M L): 0.74
- enzyme activity, Lymphs (lymphocytes [2]; J22 12/9/91 A M L): 1.20
- enzyme activity, Lymphs (lymphocytes [2]; N192 normal): 0.56
- enzyme activity, Lymphs (lymphocytes [2]; N193 normal): 0.52
- enzyme activity, Lymphs (lymphocytes [2]; N194 normal): 0.93
- enzyme activity, Lymphs (lymphocytes [2]; N197 normal): 0.70
- enzyme activity, Lymphs (lymphocytes [2]; N199 normal): 0.33
- enzyme activity, Lymphs (lymphocytes [2]; N200 normal): 0.90
- enzyme activity, Lymphs (lymphocytes [2]; N202 normal): 0.71
- enzyme activity, Lymphs (lymphocytes [2]; P71 ac. pyelonephritis): 0.91
- enzyme activity, Grans (granulocytes [3]; J22 12/9/91 A M L): 1.90
- enzyme activity, Grans (granulocytes [3]; N191 normal): 1.20
- enzyme activity, Grans (granulocytes [3]; N192 normal): 1.20
- enzyme activity, Grans (granulocytes [3]; N199 normal): 0.95
- aberrant enzyme activity, LYMPHS (lymphocytes [4]; P92 Adenitis): .smallcircle.
- aberrant enzyme activity, LYMPHS (lymphocytes [4]; P97 Pyelonephritis): .smallcircle.
- aberrant enzyme activity, LYMPHS (lymphocytes [4]; P103 Viral Syndrome): .smallcircle.
- aberrant enzyme activity, MONOS (monocytes; P97 Pyelonephritis): .smallcircle.
- aberrant enzyme activity, GRANS (granulocytes [5]; P103 Viral Syndrome): .smallcircle.

SMILES: O=C1OC2(c3ccc(NC(=O)[C@@H]4CCCN4)cc3Oc3cc(NC(=O)[C@@H]4CCCN4)ccc32)c2ccccc21 [PRO, (H-L-Pro)2 --Rho 110 .2TFA]
- MEAN DELTA FL ([1]; HIV + PATIENTS): 11.0
- MEAN DELTA FL ([1]; NORMALS): 11.4
- enzyme activity, Lymphs (lymphocytes [2]; J4 11/21/91 acute leuk.): 0.47
- enzyme activity, Lymphs (lymphocytes [2]; J4 12/2/91 A L): 0.29
- enzyme activity, Lymphs (lymphocytes [2]; J4 12/3/91 acute leuk.): 0.24
- enzyme activity, Lymphs (lymphocytes [2]; J5 11/27/91 A M L): 0.89
- enzyme activity, Lymphs (lymphocytes [2]; J19 11/27/91 C L L): 0.44
- enzyme activity, Lymphs (lymphocytes [2]; J22 12/2/91 A M L): 0.40
- enzyme activity, Lymphs (lymphocytes [2]; J22 12/9/91 A M L): 0.44
- enzyme activity, Lymphs (lymphocytes [2]; N191 normal): 0.69
- enzyme activity, Lymphs (lymphocytes [2]; N193 normal): 0.95
- enzyme activity, Lymphs (lymphocytes [2]; N194 normal): 0.86
- enzyme activity, Lymphs (lymphocytes [2]; N195 normal): 0.88
- enzyme activity, Lymphs (lymphocytes [2]; N197 normal): 0.57
- enzyme activity, Lymphs (lymphocytes [2]; N200 normal): 0.74
- enzyme activity, Lymphs (lymphocytes [2]; N201 normal): 1.10
- enzyme activity, Lymphs (lymphocytes [2]; N202 normal): 0.89
- enzyme activity, Lymphs (lymphocytes [2]; P68 tachycardia): 0.70
- enzyme activity, Lymphs (lymphocytes [2]; P69 pancreatic CA): 0.66
- enzyme activity, Lymphs (lymphocytes [2]; P70 cirrhosis/hemobilia): 0.56
- enzyme activity, Lymphs (lymphocytes [2]; P71 ac. pyelonephritis): 0.52
- enzyme activity, Grans (granulocytes [3]; J19 11/27/91 C L L): 5.50
- enzyme activity, Grans (granulocytes [3]; N195 normal): 4.70
- enzyme activity, Grans (granulocytes [3]; P69 pancreatic CA): 5.70
- enzyme activity, Grans (granulocytes [3]; P70 cirrhosis/hemobilia): 0.66
- aberrant enzyme activity, LYMPHS (lymphocytes [4]; P92 Adenitis): .smallcircle.
- aberrant enzyme activity, LYMPHS (lymphocytes [4]; P97 Pyelonephritis): .smallcircle.
- aberrant enzyme activity, LYMPHS (lymphocytes [4]; P103 Viral Syndrome): .smallcircle.
- aberrant enzyme activity, MONOS (monocytes; P92 Adenitis): .smallcircle.
- aberrant enzyme activity, MONOS (monocytes; P97 Pyelonephritis): .smallcircle.
- aberrant enzyme activity, MONOS (monocytes; P103 Viral Syndrome): .smallcircle.
- aberrant enzyme activity, GRANS (granulocytes [5]; P92 Adenitis): .smallcircle.
- aberrant enzyme activity, GRANS (granulocytes [5]; P97 Pyelonephritis): .smallcircle.
- aberrant enzyme activity, GRANS (granulocytes [5]; P103 Viral Syndrome): .smallcircle.
